A word on the IC50: it is the concentration that inhibits the measured activity by half. A higher IC50 goes with lower potency.

Structures can show the parent of a compound that is named as a salt. Where two headings read alike, the source gives them in different places.

The test system of test [1] is guinea pig platelets. The test is described as follows: In vitro inhibition of collagen-induced platelet aggregation, guinea pig platelets (PRP). It is filed as cell-based, guinea pig (male Dunkin-Hartley). As to conditions: collagen 1 μg/ml, 3 minutes of contact at 37° C. How it is done:
(§1) A study of the inhibitory activity of the compounds of formula I on platelet aggregation was carried out in vitro, i.e. by direct contact of solutions of variable concentrations of the compounds with platelets freshly separated from a sample of total blood, taken under standardized conditions, from laboratory animals (guinea pigs) and from healthy human subjects who have not received any substances or drugs that might interfere with blood clotting. The anti-platelet-aggregating activity was also studied ex vivo/vitro, i.e. after administration of the substances claimed to guinea pigs to measure the intensity and duration of the anti-aggregating action induced by the fraction of the test product absorbed and circulating in the blood.
Blood is taken by intracardiac puncture from male Dunkin-Hartley guinea pigs (weighing about 330 g), at a rate of 4.5 ml per 0.5 ml of trisodium citrate (concentration of the aqueous solution: 1.55%) in order to prevent all trace of clotting. The platelet-rich plasma (PRP) is obtained by centrifuging the tubes of total blood for 15 minutes at 150 g.
The PRPs are collected as "pools". The platelets contained in these pools are counted using a Coulter ZM haematology automatic device: if necessary, a dilution is carried out in order for the platelet concentration in the plasma to be between 200,000 and 400,000 platelets/mm^3. Simultaneously, other samples of these pools serve to prepare the platelet-poor plasma (PPP) by centrifugation at 1500 g for 15 minutes.
The kinetic study of the platelet aggregation is carried out by adding a collagen solution (1 μg/ml) to a volume of PRP, using a Chrono-log Corporation aggregometer (490-D1 or 560 VS) which uses an optical detection of the appearance of the thrombus.
The measurements of the aggregation inhibition are carried out after 3 minutes of contact at 37° C. with agitation.

Test [2] relates to guinea pig platelets. Briefly: Ex vivo/vitro inhibition of platelet aggregation after administration via the gastric route in guinea pigs. As to conditions: 10 mg/kg, fasted guinea pigs; for inhibition at 10 mg/kg: Cavia porcellus, Platelet. Also noted: species or system guinea pig (Dunkin-Hartley). The method, then:
as §1, with “blood. Evaluation of the anti-platelet-aggregating activity of the compounds is carried out in the same guinea pigs as those mentioned above (Dunkin-Hartley strain). […] The allocation of the treatments to the animals is random. The blood is taken and then treated under the same conditions as those described above for the in vitro studies. The results of the inhibition of the platelet aggregation obtained for each test concentration make it possible to calculate the IC50 concentration of each test product and the kinetics of the inhibitory effect and its duration of action.” for “blood.”

Where [3] appears, read: Cavia porcellus, Platelet, 0.05 h.
The mark [4] stands for this setting: 1 h before blood sampling, read-out: % of g.r. inhibition guinea pig ex vivo, d = 10 mg/kg, 1 h.
Where [5] appears, read: 2 h before blood sampling, read-out: % of g.r. inhibition guinea pig ex vivo, d = 10 mg/kg, 2 h.

For the molecule `O=C(CNC(=O)C(CCC1CCNCC1)CCC1CCNCC1)NCC(NS(=O)(=O)Cc1ccccc1)C(=O)O` (stereo not drawn) [Example 41, 2-[(Benzylsulphonyl)amino]-3-{[2-({4-(4-piperidyl)-2-[2-(4-piperidyl)ethyl]butanoyl}amino)acetyl]amino}propanoic Acid Dihydrochloride], the IC50 in the test with guinea pig platelets [1] (setting [3]) amounted to 8600 nM. Further, the results for the inhibition at 10 mg/kg in the test with guinea pig platelets [2] (setting [4]) and in the test on guinea pig platelets [2] (setting [5]) were 13% and 1%, respectively.
As for `O=C(CNC(=O)C(CCC1CCNCC1)CCC1CCNCC1)NCC(NS(=O)(=O)c1ccc2c(c1)OCCO2)C(=O)O` (stereo not drawn) [Example 58, 2-[(2,3-Dihydro-1,4-benzodioxin-6-ylsulphonyl)amino]-3-{[2-({4-(4-piperidyl)-2-[2-(4-piperidyl)ethyl]butanoyl}amino)acetyl]amino}propanoic Acid Dihydrochloride], the midpoint of inhibition with guinea pig platelets [1] (setting [3]), the IC50, lay at 590 nM. In addition, the inhibition at 10 mg/kg in the test on guinea pig platelets [2] (setting [4]) was -36%; with guinea pig platelets [2] (setting [5]) it was -21%.
Molecule `Cl.Cl.O=C(CNC(=O)C(CCC1CCNCC1)CCC1CCNCC1)NCC(NS(=O)(=O)CCc1ccccc1)C(=O)O` (stereo not drawn) [Example 43, 2-[(2-Phenethylsulphonyl)amino]-3-{[2-({4-(4-piperidyl)-2-[2-(4-piperidyl)ethyl]butanoyl}amino)acetyl]amino}propanoic Acid Dihydrochloride] had an IC50 with guinea pig platelets [1] of 1200 nM. Further, the “% of g.r. inhibition guinea pig ex vivo, d = 10 mg/kg, 1 h” value in the test on guinea pig platelets [2] (1 h before blood sampling) is on record as -15%. Besides, the “% of g.r. inhibition guinea pig ex vivo, d = 10 mg/kg, 2 h” value in the test on guinea pig platelets [2] (2 h before blood sampling) is listed as -4%.
On to `O=C(CNC(=O)C(CCC1CCNCC1)CCC1CCNCC1)NCC(NS(=O)(=O)c1ccc2c(c1)CCO2)C(=O)O` (stereo not drawn) [Example 64, 2-[(2,3-Dihydro-1-benzofuran-5-ylsulphonyl)amino]-3-{[2-({4-(4-piperidyl)-2-[2-(4-piperidyl)ethyl]butanoyl}amino)acetyl]amino}propanoic Acid Dihydrochloride], for which 370 nM corresponded to half-maximal inhibition in the test with guinea pig platelets [1] (setting [3]) (IC50). Also, the inhibition at 10 mg/kg in the test on guinea pig platelets [2] (setting [4]) is -65%; with guinea pig platelets [2] (setting [5]), -5%.
Taken in the same sequence, the figures for `O=C(CNC(=O)C(CCC1CCNCC1)CCC1CCNCC1)NCC(NS(=O)(=O)c1cc2ccccc2o1)C(=O)O` (stereo not drawn) [Example 68, 2-[(1-Benzofuran-2-ylsulphonyl)amino]-3-{[2-({4-(4-piperidyl)-2-[2-(4-piperidyl)ethyl]butanoyl}amino)acetyl]amino}propanoic Acid Dihydrochloride] were 180 nM, -72% and -71%.
Taken in the same sequence, the figures for `O=C(CNC(=O)C(CCC1CCNCC1)CCC1CCNCC1)NC[C@H](NS(=O)(=O)CCCCl)C(=O)O` [Example 51, 2-{[(3-Chloropropyl)sulphonyl]amino}-3-{[2-({4-(4-piperidyl)-2-[2-(4-piperidyl)ethyl]butanoyl}amino)acetyl]amino}propanoic Acid Dihydrochloride] were 11000 nM, 4% and -21%.
Taken in the same sequence, the figures for `Cc1n[nH]c(C)c1S(=O)(=O)NC(CNC(=O)CNC(=O)C(CCC1CCNCC1)CCC1CCNCC1)C(=O)O` (stereo not drawn) [Example 55, 2-{[3,5-Dimethyl-1H-pyrazol-4-yl)sulphonyl]amino}-3-{[2-({4-(4-piperidyl)-2-[2-(4-piperidyl)ethyl]butanoyl}amino)acetyl]amino}propanoic Acid Dihydrochloride] were 3500 nM, -21% and -17%.
Molecule `O=C(CNC(=O)C(CCC1CCNCC1)CCC1CCNCC1)NCC(NS(=O)(=O)c1cccc2cccnc12)C(=O)O` (stereo not drawn) [Example 47, 2-[(8-Quinolinylsulphonyl)amino]-3-{[2-({4-(4-piperidyl)-2-[2-(4-piperidyl)ethyl]butanoyl}amino)acetyl]amino}propanoic Acid Trihydrochloride] yielded an IC50 in the test with guinea pig platelets [1] (setting [3]) of 1900 nM. The inhibition at 10 mg/kg was -4% in the test on guinea pig platelets [2] (setting [4]) and -17% with guinea pig platelets [2] (setting [5]).
The matching figures for `COc1ccc(S(=O)(=O)NC(CNC(=O)CNC(=O)C(CCC2CCNCC2)CCC2CCNCC2)C(=O)O)cc1` (stereo not drawn) [Example 46, 2-{[(4-Methoxyphenyl)sulphonyl]amino}-3-{[2-({4-(4-piperidyl)-2-[2-(4-piperidyl)ethyl]butanoyl}amino)acetyl]amino}propanoic Acid Dihydrochloride]: 380 nM, -18% and -31%.
Taken in the same sequence, the figures for `Cc1ccc(S(=O)(=O)NC(CNC(=O)CNC(=O)C(CCC2CCNCC2)CCC2CCNCC2)C(=O)O)cc1` (stereo not drawn) [Example 39, 2-{[(4-Methylphenyl)sulphonyl]amino}-3-{[2-({4-(4-piperidyl)-2-[2-(4-piperidyl)ethyl]butanoyl}amino)acetyl]amino}propanoic Acid Dihydrochloride] were 250 nM, -32% and -10%.
Regarding `O=C(CNC(=O)C(CCC1CCNCC1)CCC1CCNCC1)NCC(NS(=O)(=O)c1cccc([N+](=O)[O-])c1)C(=O)O` (stereo not drawn) [Example 45, 2-{[(3-Nitrophenyl)sulphonyl]amino}-3-{[2-({4-(4-piperidyl)-2-[2-(4-piperidyl)ethyl]butanoyl}amino)acetyl]amino}propanoic Acid Dihydrochloride], inhibition in the test on guinea pig platelets [1] (setting [3]) was half-maximal at 500 nM (IC50). Further, the figures for the inhibition at 10 mg/kg in the test on guinea pig platelets [2] (setting [4]) and with guinea pig platelets [2] (setting [5]) were -36% and -51%, respectively.
The matching figures for `O=C(CNC(=O)C(CCC1CCNCC1)CCC1CCNCC1)NCC(NS(=O)(=O)/C=C/c1ccccc1)C(=O)O` (stereo not drawn) [Example 42, 2-({[(E)-2-Phenylethenyl]sulphonyl}amino)-3-{[2-({4-(4-piperidyl)-2-[2-(4-piperidyl)ethyl]butanoyl}amino)acetyl]amino}propanoic Acid Dihydrochloride]: 420 nM, -14% and -26%.
The matching figures for `Cc1nc(C)c(S(=O)(=O)NC(CNC(=O)CNC(=O)C(CCC2CCNCC2)CCC2CCNCC2)C(=O)O)s1` (stereo not drawn) [Example 54, 2-{[(2,4-Dimethyl-1,3-thiazol-5-yl)sulphonyl]amino}-3-{[2-({4-(4-piperidyl)-2-[2-(4-piperidyl)ethyl]butanoyl}amino)acetyl]amino}propanoic Acid Dihydrochloride]: 1300 nM, -40% and -15%.
As for `O=C(CNC(=O)C(CCC1CCNCC1)CCC1CCNCC1)NCC(NS(=O)(=O)c1ccc(F)c2ccccc12)C(=O)O` (stereo not drawn) [Example 62, 2-{[(4-Fluoro-1-naphthyl)sulphonyl]amino}-3-{[2-({4-(4-piperidyl)-2-[2-(4-piperidyl)ethyl]butanoyl}amino)acetyl]amino}propanoic Acid Dihydrochloride], the midpoint of inhibition in the test with guinea pig platelets [1] (setting [3]), the IC50, lay at 95 nM. Also, the inhibition at 10 mg/kg with guinea pig platelets [2] (setting [4]) is -69%; in the test with guinea pig platelets [2] (setting [5]) it was -33%.
The matching figures for `Cc1cc(S(=O)(=O)NC(CNC(=O)CNC(=O)C(CCC2CCNCC2)CCC2CCNCC2)C(=O)O)c(C)o1` (stereo not drawn) [Example 60, 2-{[(2,5-Dimethyl-3-furyl)sulphonyl]amino}-3-{[2-({4-(4-piperidyl)-2-[2-(4-piperidyl)ethyl]butanoyl}amino)acetyl]amino}propanoic Acid Dihydrochloride]: 660 nM, -53% and -32%.
